In US9981928B2, “Aryl sulfide derivatives and aryl sulfoxide derivatives as acaricides and insecticides” (BAYER CROPSCIENCE AKTIENGESELLSCHAFT, priority 2013, dated 2018):
Where two headings read alike, the source gives them in different places.

How the values were obtained:
[1] = system: caterpillars of the armyworm (Spodoptera frugiperda); assay: Spodoptera frugiperda spray test (SPODFR); assay type: in vivo; settings: maize leaf disks; application rate 500 g/ha; after 7 days
Procedure: Spodoptera frugiperda—Spray Test (SPODFR)
(§1) Solvent: 78.0 parts by weight of acetone
(§2) • 1.5 parts by weight of dimethylformamide Emulsifier: alkylaryl polyglycol ether
(§3) To produce a suitable preparation of active compound, 1 part by weight of active compound is dissolved using the stated parts by weight of solvent and made up with water containing an emulsifier concentration of 1000 ppm until the desired concentration is attained. To produce further test concentrations, the preparation is diluted with emulsifier-containing water.
Leaf disks of maize (Zea mays) are sprayed with an active compound preparation of the desired concentration and, after drying, populated with caterpillars of the armyworm (Spodoptera frugiperda).
After 7 days, the efficacy in % is determined. 100% means that all the caterpillars have been killed; 0% means that no caterpillars have been killed.

[2] = log P determination by HPLC on reversed-phase columns (C 18), analogously to OECD Guideline 117; assay type: physicochemical; settings: for logP (HCOOH): LC-MS in the acidic range, pH 2.7, 0.1% aqueous formic acid / acetonitrile; for logP (HCOOH) / logP (neutral): HPLC reversed-phase C 18; for logP (neutral): LC-MS in the neutral range, pH 7.8, 0.001 molar aqueous ammonium hydrogencarbonate / acetonitrile; for chromatographic logP: reversed-phase C18 HPLC column
How it was run: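 Reversed-phase C18 HPLC per OECD 117 with LC-MS detection and a linear 10→95% acetonitrile gradient. Acidic log P run at pH 2.7 with 0.1% formic acid in both eluents. Neutral log P run at pH 7.8 with 0.001 M aqueous ammonium hydrogencarbonate.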

[3] = system: larvae of the mustard beetle (Phaedon cochleariae); assay: Phaedon cochleariae spray test (PHAECO); assay type: in vivo; settings: Chinese cabbage leaf disks; application rate 500 g/ha; after 7 days
Procedure: Phaedon cochleariae—Spray Test (PHAECO)
as §1, §2, §3
After 7 days, the efficacy in % is determined. 100% means that all the beetle larvae have been killed; 0% means that no beetle larvae have been killed.

Amblyomma hebraeum = Amblyomma hebraeum test (AMBYHE), tick nymph immersion; assay type: in vivo; settings: tick nymphs immersed for one minute; application rate 100 ppm; after 42 days
Procedure: Amblyomma hebaraeum Test (AMBYHE)
(§4) Solvent: dimethyl sulfoxide
To produce a suitable preparation of active compound, 10 mg of active compound are mixed with 0.5 ml of dimethyl sulfoxide, and the concentrate is diluted with water to the desired concentration.
Tick nymphs (Amblyomma hebraeum) are placed into perforated plastic beakers and immersed in the desired concentration for one minute. The ticks are transferred on filter paper into a Petri dish and stored in a climate-controlled cabinet.
After 42 days, the kill in % is determined. 100% means that all of the ticks have been killed; 0% means that none of the ticks have been killed.

[4] = system: cattle ticks (Boophilus microplus) Parkhurst strain, SP-resistant; assay: Boophilus microplus dip test (BOOPMI Dip); assay type: in vivo; settings: engorged adult female ticks dipped; application rate 100 ppm; assessed after 7 days
Procedure: Boophilus microplus—Dip Test (BOOPMI Dip)
Test animals: cattle ticks (Boophilus microplus) Parkhurst strain, SP-resistant
as §4
10 mg of active compound are dissolved in 0.5 ml of dimethyl sulfoxide. To produce a suitable formulation, the active compound solution is diluted with water to the concentration desired in each case.
This active compound preparation is pipetted into tubes. 8-10 engorged adult female cattle ticks (Boophilus microplus) are transferred into a further tube with holes. The tube is immersed into the active compound preparation, and all the ticks are completely wetted. After the liquid has run out, the ticks are transferred on filter disks into plastic dishes and stored in a climate-controlled room.
(§5) Efficacy is assessed after 7 days by laying of fertile eggs. Eggs which are not visibly fertile are stored in a climate-controlled cabinet until the larvae hatch after about 42 days. An efficacy of 100% means that none of the ticks has laid any fertile eggs; 0% means that all the eggs are fertile.

[5] = system: cattle ticks (Boophilus microplus); assay: Boophilus microplus injection test (BOOPMI inj); assay type: in vivo; settings: injection into the abdomen; application rate 20 μg/animal; assessed after 7 days
Procedure: Boophilus microplus—Injection Test (BOOPMI inj)
as §4
To produce a suitable preparation of active compound, 10 mg of active compound are mixed with 0.5 ml of solvent and the concentrate is diluted with solvent to the desired concentration.
1 μl of the active compound solution is injected into the abdomen of 5 engorged adult female cattle ticks (Boophilus microplus). The animals are transferred into dishes and kept in a climate-controlled room.
as §5

[6] = system: greenhouse red spider mite (Tetranychus urticae); assay: Tetranychus urticae spray test, OP-resistant (TETRUR), bean leaf disks; assay type: in vivo; settings: bean leaf disks, application rate 500 g/ha, after 6 days; for pest or weed control at 500 g/ha: Tetranychus urticae, foliar, 144 h, read-out: efficacy in %
How it was run: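 Bean leaf disks carrying all stages of OP-resistant Tetranychus urticae sprayed with compound in acetone/dimethylformamide diluted in emulsifier water. Kill assessed after 6 days as % efficacy, 100% meaning all mites dead.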

[7] = system: green peach aphid (Myzus persicae); assay: Myzus persicae spray test (MYZUPE); assay type: in vivo; settings: Chinese cabbage leaf disks; application rate 500 g/ha; after 6 days
Procedure: Myzus persicae—Spray Test (MYZUPE)
Solvent: 78 parts by weight of acetone
as §2, §3
Disks of Chinese cabbage leaves (Brassica pekinensis) infested by all stages of the green peach aphid (Myzus persicae) are sprayed with an active compound preparation of the desired concentration.
After 6 days, the efficacy in % is determined. 100% means that all the aphids have been killed; 0% means that none of the aphids have been killed.

[8] = system: southern root-knot nematode (Meloidogyne incognita); assay: Meloidogyne incognita test (MELGIN); assay type: in vivo; settings: lettuce in sand; application rate 20 ppm; after 14 days
Procedure: Meloidogvne incognita test (MELGIN)
Solvent: 125.0 parts by weight of acetone
To produce a suitable preparation of active compound, 1 part by weight of active compound is mixed with the stated amount of solvent and the concentrate is diluted with water to the desired concentration.
Vessels are filled with sand, active compound solution, an egg/larvae suspension of the southern root-knot nematode (Meloidogyne incognita) and lettuce seeds. The lettuce seeds germinate and the plants develop. The galls develop on the roots.
After 14 days, the nematicidal efficacy in % is determined by the formation of galls. 100% means that no galls were found; 0% means that the number of galls on the treated plants corresponds to the untreated control.

[9] = acidic range, pH 2.7, 0.1% aqueous formic acid and acetonitrile, read-out: log P[a] / log P(HCOOH)
[10] = neutral range, pH 7.8, 0.001 molar aqueous ammonium hydrogencarbonate and acetonitrile, read-out: log P[b] / log P(neutral)

SMILES | logP (HCOOH) [2] | logP (neutral) [2] | efficacy in % [3] | efficacy (laying of fertile eggs) [5] | efficacy in % [6] | nematicidal efficacy in % (formation of galls) [8] | also measured
Cc1cc(F)c(-n2[nH]c(=O)n(-c3cccc(Cl)c3)c2=O)cc1SCC(F)(F)F [Example 157] | 3.31 | 1.33 | – | – | – | – | efficacy in % [1]: 100%
Cc1ccc(-n2c(=O)n(C)c(=O)n2Cc2ccccc2)cc1SCC(F)(F)F [Example 57] | 3.62 | 3.56 | 100% | – | – | – | –
Cc1cc(F)c(-n2c(=O)n(C(C)C)c(=O)n2C)cc1SCC(F)(F)F [Example 91] | 3.35 | 3.28 | – | 100% | 100% | – | kill in % (Amblyomma hebraeum): 100%; efficacy (laying of fertile eggs) [4]: 100%
Cc1cc(F)c(-n2[nH]c(=O)n(C3CC3)c2=O)cc1SCC(F)(F)F [Example 207] | 1.57 | −0.23 | – | – | 90% | – | efficacy in % [1]: 83%
Cc1ccc(-n2c(=O)n(C)c(=O)n2Cc2ccccc2Cl)cc1SCC(F)(F)F [Example 60] | 3.80 | 3.75 | 83% | – | – | – | –
Cc1ccc(-n2c(=O)n(C(C)C)c(=O)n2C)cc1[S+]([O-])CC(F)(F)F (stereo not drawn) [Example 141] | 2.27 | 2.24 | – | 100% | 90% | – | efficacy (laying of fertile eggs) [4]: 90%; efficacy in % [7]: 100%
Cc1cc(F)c(N2CC(=O)N(C)C2=O)cc1SCC(F)(F)F [Example 211] | 2.66 | – | 83% | 100% | 100% | – | –
Cc1cc(F)c(N2C(=O)C(=O)N(CC(F)(F)F)C2=S)cc1[S+]([O-])CC(F)(F)F (stereo not drawn) [Example 190] | 3.03 | – | 100% | – | 90% | – | –
Cc1cc(F)c(N2C(=O)OC(C)C2=O)cc1[S+]([O-])CC(F)(F)F (stereo not drawn) [Example 206] | 2.08 | – | – | – | – | – | efficacy in % [7]: 100%
Cc1cc(F)c(-n2c(=O)n(C3CC3)c(=O)n2C)cc1[S+]([O-])CC(F)(F)F (stereo not drawn) [Example 34] | 1.91 | 1.88 | – | 100% | 100% | 90% | –
Cc1ccc(-n2c(=O)n(C)c(=O)n2-c2ccc(C)c([S+]([O-])CC(F)(F)F)c2)cc1SCC(F)(F)F (stereo not drawn) [Example 84] | 3.46 | 3.38 | 100% | – | – | – | –
Cc1cc(F)c(N2C(=O)CN(C)C2=O)cc1SCC(F)(F)F [Example 200] | 2.42 | 2.33 | 100% | – | 90% | – | efficacy in % [1]: 100%
Cc1cc(F)c(N2CCN(C)C2=O)cc1SCC(F)(F)F [Example 198] | 2.79 | 2.75 | 83% | – | 100% | – | –
Cc1ccc(-n2c(=O)n(C3CC3)c(=O)n2C)cc1[S+]([O-])CC(F)(F)F (stereo not drawn) [Example 37] | 1.89 | 1.87 | – | 100% | 100% | 100% | –
Cc1ccc(-n2c(=O)n(C)c(=O)n2CC2CC2)cc1SCC(F)(F)F [Example 52] | 3.34 | 3.29 | 100% | – | 100% | 100% | –
Cc1cc(F)c(-n2c(=O)n(C3CC3)c(=O)n2C)cc1SCC(F)(F)F [Example 35] | 2.83 | 2.81 | – | 100% | 100% | 100% | –
Cc1cc(F)c(N2C(=O)C(=O)N(C3CCCCC3)C2=O)cc1SCC(F)(F)F [Example 185, 1-Cyclohexyl-3-{2-fluoro-4-methyl-5-[(2,2,2-trifluoroethyl)sulfanyl]phenyl}imidazolidine-2,4,5-trione] | – | – | 100% | – | – | – | pest or weed control at 500 g/ha [6]: 90%; chromatographic logP [2, 9]: 4.32; chromatographic logP [2, 10]: 4.27
Cn1c(=O)n(C2CC2)c(=O)n1-c1ccc(C(F)(F)F)c([S+]([O-])CC(F)(F)F)c1 (stereo not drawn) [Example 54] | 2.63 | 2.58 | – | 100% | 100% | 90% | –
Cc1cc(F)c(N2C(=O)C(=O)N(C3CCCCC3)C2=O)cc1[S+]([O-])CC(F)(F)F (stereo not drawn) [Example 186, 1-Cyclohexyl-3-{2-fluoro-4-methyl-5-[(2,2,2-trifluoroethyl)sulfinyl]phenyl}imidazolidin-2,4,5-trion] | – | – | 100% | – | – | – | pest or weed control at 500 g/ha [6]: 100%; chromatographic logP [2, 9]: 3.36; chromatographic logP [2, 10]: 3.33
Cc1cc(F)c(N2C(=O)CSC2=NCC(F)(F)F)cc1[S+]([O-])CC(F)(F)F (stereo not drawn) [Example 13, 3-{2-Fluoro-4-methyl-5-[(2,2,2-trifluoroethyl)sulfinyl]phenyl}-2-[(2,2,2-trifluoroethyl)imino]-1,3-thiazolidin-4-one] | – | – | – | 100% | – | 90% | pest or weed control at 500 g/ha [6]: 90%; chromatographic logP [2, 9]: 2.7; chromatographic logP [2, 10]: 2.64
